Blank lines part the entries; values can stand above or below the molecule they belong to.
Tests used:
hSGLT3 [1] = molecular target: T1, hSGLT3 (Homo sapiens, UniProt Q9NY91, E457Q); assay: inhibition of αM-glc-induced depolarization, two-electrode recording in Xenopus oocytes; assay type: cell-based; conditions: read-out: E457Q-hSGLT3 / K0.5
T1 construct: gene SLC5A4; full-length cDNA, cRNA expressed in Xenopus laevis oocytes (untagged in the oocyte tests)
T1 sequence (Q9NY91 1-659 E457Q): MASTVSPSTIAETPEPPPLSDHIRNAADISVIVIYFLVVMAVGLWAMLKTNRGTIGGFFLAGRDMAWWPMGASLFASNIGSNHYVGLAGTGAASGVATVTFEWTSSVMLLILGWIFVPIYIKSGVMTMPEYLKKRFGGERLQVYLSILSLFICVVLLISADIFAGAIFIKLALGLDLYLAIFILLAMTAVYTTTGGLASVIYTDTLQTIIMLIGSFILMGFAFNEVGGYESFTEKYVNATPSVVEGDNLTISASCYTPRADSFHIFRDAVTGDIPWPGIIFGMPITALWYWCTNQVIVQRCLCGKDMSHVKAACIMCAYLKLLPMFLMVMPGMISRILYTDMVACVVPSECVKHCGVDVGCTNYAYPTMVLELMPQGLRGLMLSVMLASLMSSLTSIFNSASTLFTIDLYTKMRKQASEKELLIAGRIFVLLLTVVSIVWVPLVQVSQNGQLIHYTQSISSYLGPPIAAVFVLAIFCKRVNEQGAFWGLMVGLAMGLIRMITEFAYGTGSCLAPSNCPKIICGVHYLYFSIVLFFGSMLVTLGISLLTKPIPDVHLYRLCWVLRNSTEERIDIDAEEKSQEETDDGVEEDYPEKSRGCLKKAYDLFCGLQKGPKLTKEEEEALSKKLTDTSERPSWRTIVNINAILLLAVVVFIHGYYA
Text: inhibition of αM-glc-induced depolarization, two-electrode recording in Xenopus oocytes on hSGLT3

hSGLT3 [2] = molecular target: T2, hSGLT3 (Homo sapiens, UniProt Q9NY91); assay: inhibition of glucose-induced current, two-electrode voltage clamp in Xenopus oocytes; assay type: cell-based; conditions: pH 5, glucose present; phlorizin also blocks about two-thirds of the H+-induced current
T2 construct: gene SLC5A4; full-length cDNA, cRNA expressed in Xenopus laevis oocytes (untagged in the oocyte tests)
T2 sequence (Q9NY91 1-659): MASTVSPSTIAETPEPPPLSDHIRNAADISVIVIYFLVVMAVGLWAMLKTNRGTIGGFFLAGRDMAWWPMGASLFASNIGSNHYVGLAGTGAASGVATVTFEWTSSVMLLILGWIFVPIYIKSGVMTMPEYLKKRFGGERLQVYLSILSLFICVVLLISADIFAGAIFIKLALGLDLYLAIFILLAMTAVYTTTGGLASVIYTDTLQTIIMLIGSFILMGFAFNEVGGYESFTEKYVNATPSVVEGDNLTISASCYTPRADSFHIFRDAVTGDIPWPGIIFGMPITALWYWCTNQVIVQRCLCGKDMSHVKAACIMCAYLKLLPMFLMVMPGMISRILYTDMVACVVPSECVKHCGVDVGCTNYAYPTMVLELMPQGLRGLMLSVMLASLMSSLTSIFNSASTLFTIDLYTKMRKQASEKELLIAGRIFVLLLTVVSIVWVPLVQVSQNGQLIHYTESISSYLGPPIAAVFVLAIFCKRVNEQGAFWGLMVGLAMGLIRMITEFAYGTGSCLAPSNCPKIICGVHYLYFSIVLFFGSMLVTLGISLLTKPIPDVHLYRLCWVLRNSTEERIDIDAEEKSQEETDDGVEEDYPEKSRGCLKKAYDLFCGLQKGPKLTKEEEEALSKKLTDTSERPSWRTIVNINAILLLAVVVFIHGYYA

hSGLT3 [3] = molecular target: T2, hSGLT3; assay: sugar-induced current, two-electrode voltage clamp in Xenopus oocytes; assay type: cell-based; conditions: 150 mM αM-glc, Na+ buffer; bound but not transported
[4] = substrate: CO[C@H]1O[C@H](CO)[C@@H](O)[C@H](O)[C@H]1O; assay: sugar-induced depolarization, two-electrode recording in Xenopus oocytes; assay type: cell-based, Homo sapiens; conditions: 100 mM Na+, pH 7.4, room temperature, n = 3
Text: sugar-induced depolarization, two-electrode recording in Xenopus oocytes on hSGLT3

Ki (hSGLT3 [1]): 1600 ± 90 nM
% inhibition at 100 μM (hSGLT3 [2]): 2/3
Molecule: O=C(CCc1ccc(O)cc1)c1c(O)cc(O)cc1O[C@@H]1O[C@H](CO)[C@@H](O)[C@H](O)[C@H]1O [phlorizin]

Molecule: CO[C@H]1O[C@H](CO)[C@@H](O)[C@H](O)[C@H]1O [αM-glc]
sugar-induced current, two-electrode voltage clamp in Xenopus oocytes (hSGLT3 [3]): sugar-induced current (difference between black and open circles in 3D and 3G)

B1: hSGLT3 (Homo sapiens; E457Q) (protein)
chain: MASTVSPSTIAETPEPPPLSDHIRNAADISVIVIYFLVVMAVGLWAMLKTNRGTIGGFFLAGRDMAWWPMGASLFASNIGSNHYVGLAGTGAASGVATVTFEWTSSVMLLILGWIFVPIYIKSGVMTMPEYLKKRFGGERLQVYLSILSLFICVVLLISADIFAGAIFIKLALGLDLYLAIFILLAMTAVYTTTGGLASVIYTDTLQTIIMLIGSFILMGFAFNEVGGYESFTEKYVNATPSVVEGDNLTISASCYTPRADSFHIFRDAVTGDIPWPGIIFGMPITALWYWCTNQVIVQRCLCGKDMSHVKAACIMCAYLKLLPMFLMVMPGMISRILYTDMVACVVPSECVKHCGVDVGCTNYAYPTMVLELMPQGLRGLMLSVMLASLMSSLTSIFNSASTLFTIDLYTKMRKQASEKELLIAGRIFVLLLTVVSIVWVPLVQVSQNGQLIHYTQSISSYLGPPIAAVFVLAIFCKRVNEQGAFWGLMVGLAMGLIRMITEFAYGTGSCLAPSNCPKIICGVHYLYFSIVLFFGSMLVTLGISLLTKPIPDVHLYRLCWVLRNSTEERIDIDAEEKSQEETDDGVEEDYPEKSRGCLKKAYDLFCGLQKGPKLTKEEEEALSKKLTDTSERPSWRTIVNINAILLLAVVVFIHGYYA
notes: full-length cDNA, cRNA expressed in Xenopus laevis oocytes (untagged in the oocyte tests)
K0.5 [4]: 0.5 ± 0.03 mM

Reference: PMC2857651, “A Single Amino Acid Change Converts the Sugar Sensor SGLT3 into a Sugar Transporter” (PLoS ONE, 2010)
